Results reported in patent US4231923A, “Assay method and compounds” (Burroughs Wellcome Co., priority 1977, dated 1980).

Biological target: Opiate receptor
Assay: Opiate receptor binding (IC50) by the method of Pasternak et al. using tritiated naloxone, absence of sodium ions
Settings: method indicated in Example 1 (tritiated naloxone, absence of sodium ions, 4° C., pH 7.4); Table 2
Procedure: *Method of Pasternak, G. W. et al., Molecular Pharmacology, 11, 340-351
(1975) using tritiated naloxone and in the absence of sodium ions; assays
trishydrochloric acid buffer (50 mM, pH 7.4).
(§1) The opiate receptor IC50 (M) was ascertained by the method indicated in Example 1.
as §1

## H.Try.Gly.Gly.Phe.D-Met.OMe HCl [(Y)]
  IC50: 60 nM
